Measured values reported in patent EP0847397B1, “WATER-SOLUBLE C-RING ANALOGUES OF 20 (S)-CAMPTOTHECIN” (DR. REDDY'S RESEARCH FOUNDATION, priority 1996, dated 1997).
Converted amounts (≈) assume the structure as drawn.

How the values were obtained:
[1] = MTD in Swiss albino mice (single dose); details: mouse, in vivo, 14 days observation
Protocol: 1. MTD in Swiss albino mice:
Each Swiss Albino mouse is injected with a single does of the test compound on a day designated as Day 1: Doses that were tested are 400, 200, 100, 50, 25, 12.5, 8.3, 6.25 and 3.13 mg/kg body weight. […] (As per the protocol followed by the U.S. National Cancer Institute)

[2] = Solubility by HPLC method; format: physicochemical; details: aqueous buffer, 0.1M sodium acetate buffer pH 5.0, 24 hours, room temperature
Protocol: 4. Solubility by HPLC method:
Excess of compound was soaked in 0.5 ml of 0.1M sodium acetate buffer at pH 5.0 for 24 hours at room temperature. The solution was filtered through 0.45 micron PVDF syringe filter (Gelman Sciences). The filtrate was injected into HPLC at different volumes (10 & 20 µl). Chromatograms were recorded. Responses recorded were extrapolated from the calibration curve and the solubility of the compound was calculated. (J. Med. Chem., 1995; 38: 400)

[3] = Solubility by routine method; format: physicochemical; details: deionized water, 37°C
Protocol: 5. Solubility by routine method:
Compound was suspended in 5 ml of deionized water and heated to 37°C. for 10 min. Then, the solution was filtered and the filtrate was evaporated to drying using methanol and the solid residue was weighed.

[4] = Pharmacokinetics at MTD; format: in vivo, Swiss albino mice; details: mouse, ip, intraperitoneal, plasma
Protocol: 3. Pharmacokinetics at MTD:
All studies were carried out in Swiss albino mice in the weight range 35-40 g. The animals were fasted overnight prior to dosage of the drug and were fed 3 hours after dosing. The animals were dosed intraperitonially as a solution in DMSO:water (50:50; v/v). Blood samples were drawn from orbital sinus at 1, 2, 4, 6 and 8 hours after administration of the dose into heparinized tubes, centrifuged at 13000 RPM for 10 min. Plasma samples were separated and analyzed by HPLC. To 50 µl of the sample, 100 µl of chilled acidified methanol was added and mixed to precipitate proteins. The sample was centrifuged at 13,000 RPM for 10 min. 100 µl of supernatant was made up to 200 µl with methanol:water (50:50; v/v) and 100 µl was injected on HPLC. Peak area of the drug was used for quantification. Calibration, control and recovery samples were prepared by spiking 50 µl of blank plasma with known amounts of the drug and processed in the same manner as the samples. (J. Natl. Cancer Inst., 1996; 88:817-824).

[5] = tested on: ACHN; test: In vitro activity after 1 hour exposure (Sulforhodamine B); format: cell-based; details: Homo sapiens, 1 hour exposure then 48 hours drug-free
Protocol: (§1) 6. In vitro activity after 1 hour exposure:
(§2) Grow the cells in 15 ml of Complete Medium (RPM1-1640 with 10% Fetal bovine serum and 0.2% NaHCO3) for 3-5 days to obtain a cell number of 10^6 cells/flask. The medium is removed and the attached cells are washed with Phosphate Buffered Saline (PBS). 1 ml of 0.1% Trypsin-EDTA is added and incubated for 5 min at 37°C. Tap the flasks gently and add 5 ml of complete medium. Remove cell suspension and centrifuge at 2000 rpm for 5 min. Discard the supernatant and suspend the pellet in 5 ml of complete medium. Count the cell number in a haemocytometer. Dilute the cell suspension to 10,000 cells/100 µl in complete medium. Plate out 100 µl of cell suspension in each of 96 well microtitre plate and incubate for 24 hrs at 37°C. and 5% CO2. Terminate the reference blank (plated out separately) with 25 µl of 50% cold Trichloroacetic acid (TCA). Incubate for 1 hour at 4°C. Wash the plate (five times) with deionized water. Air dry and preserve the plate at 4°C. for determination of T0 value. Prepare suitable dilution of the test compound in complete medium and add 100 µl to each well to maintain the final concentration ranging between 10^-4M and 10^-8M. Incubate for 1 hr at 37°C. and 5% CO2. Centrifuge the microtitre plate at 1000 rpm for 5 min. Remove the supernatant. Wash the cells twice with 100 µl of PBS to remove the traces of test compound. Add 200 µl of complete medium to each well and incubate for 48 hours at 37°C. and 5% CO2. Terminate the cell growth with the addition of 50 µl of 50% cold TCA. Incubate the plate for 1 hr at 4°C. Wash the plates with deionized water (five times) and air dry. Add 100 µl of Sulforhodamine B solution (0.4% in 1% acetic acid) to each well. Keep at room temperature for 15 minutes. Wash (five times) with 1% acetic acid and air dry. Add 100 µl of 10mM Trizma base (Sigma), shake gently on plate shaker for 15 minutes and read the optical density at 490 nm in Spectrophotometric plate reader. (as per the protocol followed by the U.S. National Cancer Institute.

[6] = tested on: DU-145; test: as above; format: cell-based; details: Homo sapiens; DU-145, 1 hour exposure then 48 hours drug-free
Protocol: as §1, §2

[7] = tested on: HOP-62; test: as above; format: cell-based; details: Homo sapiens; HOP-62, 1 hour exposure then 48 hours drug-free
Protocol: as §1, §2

[8] = tested on: MCF-7/ADR; test: as above; format: cell-based; details: Homo sapiens, NCI/ADR-RES, 1 hour exposure then 48 hours drug-free
Protocol: as §1, §2

[9] = tested on: OVCAR-8; test: as above; format: cell-based; details: Homo sapiens; OVCAR-8, 1 hour exposure then 48 hours drug-free
Protocol: as §1, §2

[10] = tested on: SF-268; test: as above; format: cell-based; details: Homo sapiens
Protocol: as §1, §2

[11] = tested on: UACC-62; test: as above; format: cell-based; details: Homo sapiens; UACC-62, 1 hour exposure then 48 hours drug-free
Protocol: as §1, §2

[12] = tested on: NCI's 60 human tumor cell line assay; test: cells; format: cell-based; details: 60 cell, 48 h, read-out: IC50 (mean GI50 against NCI's 60 human tumor cell line assay)
Protocol: Each test compound was screened against a battery of 60 human cell lines obtained from eight organs. In a typical procedure, the cell suspensions that were diluted according to the particular cell type and the expected target cell density (5000-40,000 cells per well based on cell growth characteristics) were added into 96-well microtiter plates. Inoculates were allowed a preincubation period of 24h at 37°C. for stabilization. Dilutions at twice the intended test concentrations were added at time zero in 100-µl aliquots to microtiter plate wells. Usually test compounds were evaluated at five 10-fold dilutions. The highest well concentration used in the test is 10^-4M. The cells are then incubated in the presence of drug (the test compound) for further 48h in 5% CO2 atmosphere and 100% humidity. At the end of this time, the adherent cells are fixed to the plate by means of trichloroacetic acid, and after a number of washes, the cell layer is treated with the protein stain Sulforhodamine B. The optical density which is proportional to protein mass, is then read by automated spectrophotometric plate readers at a wavelength of 515 nm. Readings are transferred to a microcomputer and final reports are generated using especially developed software.

[13] = tested on: KD 488; test: In vitro activity against AIDS related Lymphoma (ARL) cell lines (NCI protocol); format: cell-based; details: Homo sapiens, KD 488, ARL cell line
[14] = result in words, compared with 20(S)-camptothecin; cited from earlier work

**Q.** With `CCOC1c2cc3c(O)cccc3nc2-c2cc3c(c(=O)n21)COC(=O)[C@]3(O)CC` (some centres unmarked) [Example 11, 5-Ethoxy-9-hydroxycamptothecin] as the compound, how does the MTD at 336 h ([1]; intravenous) read?
**A.** The MTD at 336 h was 100 mg/kg.

**Q.** What about the MTD at 336 h ([1]; ip, intraperitoneal) of the same compound?
**A.** Its MTD at 336 h is 400 mg/kg.

**Q.** What about the solubility at 24 h [2] of the same compound?
**A.** The solubility at 24 h was 170 µg/mL (≈ 416 µM).

**Q.** And the solubility at 10 min [3]?
**A.** The solubility at 10 min was under 1000 µg/mL.

**Q.** And the AUC(0-t) ([4]; DMSO:water (50:50), read-out: AUC0-1)?
**A.** Its AUC(0-t) is 18.5 ± 2.1 µM·h.

**Q.** What about the Cmax [4] of the same compound?
**A.** Its Cmax is 6.95 ± 1.2 µM.

**Q.** And the Tmax [4]?
**A.** The Tmax was 1 h.

**Q.** What about the half-life [4] of the same compound?
**A.** The half-life was 1.92 ± 0.4 h.

**Q.** And the k el [4]?
**A.** The k el was 0.000103 s⁻¹.

**Q.** And the GI50 [5]?
**A.** Its GI50 is 0.55 µM.

**Q.** What about the GI50 [6] of the same compound?
**A.** The GI50 was 0.35 µM.

**Q.** And the GI50 [7]?
**A.** Its GI50 is 6 µM.

**Q.** And the GI50 [8]?
**A.** The GI50 was 1.5 µM.

**Q.** What about the GI50 [9] of the same compound?
**A.** The GI50 was 4.5 µM.

**Q.** What about the GI50 [10] of the same compound?
**A.** The GI50 was 6 µM.

**Q.** What about the GI50 [11] of the same compound?
**A.** The GI50 was 40 µM.

**Q.** What about the mean GI50 [12] of the same compound?
**A.** Its mean GI50 is 6.68 µM.

**Q.** With `CCc1c2c(nc3ccccc13)-c1cc3c(c(=O)n1C2OCCO)COC(=O)[C@]3(O)CC` (some centres unmarked) [Example 32, 5-(2'-Hydroxyethoxy)-7-ethylcamptothecin] as the compound, how does the IC (TGI) ([13]; 48 h) read?
**A.** The IC (TGI) was 2.28 µM.

**Q.** And the GI50 [13]?
**A.** The GI50 was 0.246 µM.

**Q.** With `CC=c1c2cc3ccccc3nc2c2cc3c(c(=O)n12)COC(=O)[C@]3(O)CC` [formula 11] as the compound, how does the anti-tumor activity [14] read?
**A.** Its anti-tumor activity is “anti-tumor activity comparable to that of 20(S)-camptothecin”.
